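A five-concentration, 48-hour dose response in 96-well plates underlies each endpoint, interpolated linearly between surrounding concentrations. Here, GI50 denotes the concentration required for 50% inhibition of growth. The concentration for full growth arrest is given as TGI.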
Tests used:
Test in all cases: growth of human tumour cells (NCI), 48 h
786-0 renal = system: 786-0 renal
A498 renal = system: A498 renal
A549 NSCLC = system: A549 NSCLC
ACHN renal = system: ACHN renal
BT-549 breast = system: BT-549 breast
CAKI-1 renal = system: CAKI-1 renal
CCRF-CEM leukemia = system: CCRF-CEM leukemia
COLO 205 colon = system: COLO 205 colon
DU-145 prostate = system: DU-145 prostate
EKVX NSCLC = system: EKVX NSCLC
HCC-2998 colon = system: HCC-2998 colon
HCT-116 colon = system: HCT-116 colon
HCT-15 colon = system: HCT-15 colon
HL-60(TB) leukemia = system: HL-60(TB) leukemia
HOP-62 NSCLC = system: HOP-62 NSCLC
HOP-92 NSCLC = system: HOP-92 NSCLC
HS 578T breast = system: HS 578T breast
HT29 colon = system: HT29 colon
IGROV1 ovarian = system: IGROV1 ovarian
K-562 leukemia = system: K-562 leukemia
KM12 colon = system: KM12 colon
LOX IMVI melanoma = system: LOX IMVI melanoma
M14 melanoma = system: M14 melanoma
MALME-3M melanoma = system: MALME-3M melanoma
MCF7 breast = system: MCF7 breast
MDA-MB-435 = system: MDA-MB-435
MDA-MB-468 breast = system: MDA-MB-468 breast
MOLT-4 leukemia = system: MOLT-4 leukemia

COc1cccc(-c2ccc(/C=N/NC(=O)c3[nH]c4ccc(Br)cc4c3-c3ccccc3)o2)c1
GI50 (786-0 renal): 2.84 µM | TGI (786-0 renal): 8.73 µM | GI50 (A498 renal): 93.2 µM | TGI (A498 renal): > 100 µM | GI50 (A549 NSCLC): 3.55 µM | TGI (A549 NSCLC): 17.7 µM | GI50 (ACHN renal): 5.43 µM | TGI (ACHN renal): > 100 µM | GI50 (BT-549 breast): 2.8 µM | TGI (BT-549 breast): 7.06 µM | GI50 (CAKI-1 renal): 11.4 µM | TGI (CAKI-1 renal): > 100 µM | GI50 (CCRF-CEM leukemia): 4.19 µM | TGI (CCRF-CEM leukemia): 9.66 µM | GI50 (COLO 205 colon): 2.48 µM | TGI (COLO 205 colon): 7.74 µM | GI50 (DU-145 prostate): 4.19 µM | TGI (DU-145 prostate): > 100 µM | GI50 (EKVX NSCLC): 6.71 µM | TGI (EKVX NSCLC): > 100 µM | GI50 (HCC-2998 colon): 4.16 µM | TGI (HCC-2998 colon): 72.9 µM | GI50 (HCT-116 colon): 3.33 µM | TGI (HCT-116 colon): 12.3 µM | GI50 (HCT-15 colon): 3.34 µM | TGI (HCT-15 colon): 16.9 µM | GI50 (HL-60(TB) leukemia): 2.21 µM | TGI (HL-60(TB) leukemia): 5.08 µM | GI50 (HOP-62 NSCLC): 3.54 µM | TGI (HOP-62 NSCLC): 15.3 µM | GI50 (HOP-92 NSCLC): 12.8 µM | TGI (HOP-92 NSCLC): 46 µM | GI50 (HS 578T breast): 3.73 µM | TGI (HS 578T breast): 41.2 µM | GI50 (HT29 colon): 2.36 µM | TGI (HT29 colon): 5.47 µM | GI50 (IGROV1 ovarian): 4.6 µM | TGI (IGROV1 ovarian): > 100 µM | GI50 (K-562 leukemia): 2.89 µM | TGI (K-562 leukemia): 12.9 µM | GI50 (KM12 colon): 3.96 µM | TGI (KM12 colon): 49.6 µM | GI50 (LOX IMVI melanoma): 3.84 µM | TGI (LOX IMVI melanoma): 16.6 µM | GI50 (M14 melanoma): 3.49 µM | TGI (M14 melanoma): > 100 µM | GI50 (MALME-3M melanoma): 3.72 µM | TGI (MALME-3M melanoma): 32.6 µM | GI50 (MCF7 breast): 3.5 µM | TGI (MCF7 breast): > 100 µM | GI50 (MDA-MB-435): 2.72 µM | TGI (MDA-MB-435): 8.57 µM | GI50 (MDA-MB-468 breast): 2.29 µM | TGI (MDA-MB-468 breast): 6.38 µM | GI50 (MOLT-4 leukemia): 3.34 µM | TGI (MOLT-4 leukemia): 12.3 µM
